From US20250041284A1, “TREATMENT OF NEUROLOGICAL DISORDERS” (Praxis Precision Medicines, Inc., priority 2022, published 2025)
“Also recorded” adds a separate entry of the source.

Key:
human NaV1.6 = target: T1, human NaV1.6 (Homo sapiens, UniProt Q9UQD0); assay: Peak INa tonic block (TB), automated patch clamp in HEK cells; format: cell-based
T1 construct: HEK-293 cell lines stably expressing human NaV1.6 (NP_055006) were used; expressed in transfected cells

[1] = Spontaneous locomotor activity (sLMA) (Example 4); format: in vivo, mouse; conditions: male, CD-1, mouse, in vivo, po, 30 min post-dose, 30-minute test
Experimental: (§1) Food and water were available ad libitum.
(§2) Dosing solutions were prepared on each experiment day. […] All solutions were protected from light. Samples from dosing solutions were stored at 4° C.
(§3) The sLMA test was carried out over two days. Half of the mice from each treatment group was tested on each day.
(§4) Animals were p.o. administered Compound 1 or 35% HPBCD (vehicle) 30 minutes prior to the sLMA test.
(§5) All mice were anesthetized with CO2. […] The supernatant plasma was pipetted into Eppendorf tubes.
(§6) An aliquot of 20 μL unknown sample, calibration standard, quality control, dilute quality control, single blank and double blank sample was added to a 1.5 mL tube. Each sample (except the double blank) was quenched with 300 μL IS solution (double blank sample was quenched with 300 μL ACN), and then the mixture was vortex-mixed well for at least 15 seconds and centrifuged for 15 minutes at 12000 g, 4° C. 65 μL supernatant was transferred to a 96-well plate and centrifuged for 5 minutes at 3220 g, 4° C. Then 3 μL supernatant was directly injected for LC-MS/MS analysis.
(§7) Brain homogenate was prepared by homogenizing brain tissue with 5 volumes (w:v) of cold 15 mM PBS/MeOH (V:V, 2:1). An aliquot of 40 μL unknown sample, calibration standard, quality control, dilute quality control, single blank and double blank sample was added to a 1.5 mL tube. Each sample (except the double blank) was quenched with 600 μL IS solution (double blank sample was quenched with 600 μL ACN), and then the mixture was vortex-mixed well for at least 15 seconds and centrifuged for 15 minutes at 12000 g, 4° C. 65 μL supernatant was transferred to a 96-well plate and centrifuged for 5 minutes at 3220 g, 4° C. Then 3 μL of the supernatant was directly injected for LC-MS/MS analysis.

[2] = test system: spontaneous locomotor activity in male CD-1 mice; assay: Spontaneous locomotor activity (sLMA) (Example 4); format: in vivo, mouse
Experimental: as §1, §2, §3, §4, §5, §6, §7

hNaV1.6 = target: T2, hNaV1.6 (Homo sapiens, UniProt Q9UQD0); assay: Peak INa voltage-dependent block (VDB), automated patch clamp in HEK cells; format: cell-based
T2 construct: expressed in transfected cells; host or cells: HEK cells

[3] = test system: scPTZ-induced seizures in wildtype CD-1 mice; assay: Subcutaneous pentylenetetrazole (scPTZ) induced seizure; format: in vivo, mouse; conditions: 1-10 mg/kg orally
Experimental: Male CD-1 mice (Charles River Laboratories, St. Constant, Quebec, Canada) were used for the study. Body weights at the time the experiment was carried out were between 27 and 39 grams. The mice were group-housed in polycarbonate cages according to standard operating procedures. Animals were maintained on a 12 hour light/12 hour dark cycle, with all experimental activities occurring during the light phase. Food and water were available ad libitum. Mice acclimated to the test facility for at least 72 hours prior to testing.
Treatment was conducted using Compound 1 and 35% 2-hydroxypropyl-β-cyclodextrin (35% HPBCD, used as a negative control). Compound 1 stock solution was prepared fresh each experiment day in 35% HPBCD. […]
Immediately prior to the administration of PTZ, a brief neurological assessment was performed. Each animal was visually assessed and received a score from 0 to 3 according to the following scoring system: neurological score of 0 corresponds to a normal status; neurological score of 1 corresponds to a modest decrease in spontaneous activity; neurological score of 2 corresponds to a marked decrease in spontaneous activity; and neurological score of 3 corresponds to loss of righting reflex.
PTZ (85 mg/kg, 10 ml/kg) was administered as a subcutaneous (s.c.) injection. […] The latency to generalized clonic seizure was recorded. Seizures were also scored using a seizure scale. […]

[4] = test system: various NaV isoforms and orthologs; assay: ATX-II induced persistent INa at NaV isoforms and orthologs; format: cell-based; conditions: in words, FIG. 8C

T1 sequence (Q9UQD0 whole entry): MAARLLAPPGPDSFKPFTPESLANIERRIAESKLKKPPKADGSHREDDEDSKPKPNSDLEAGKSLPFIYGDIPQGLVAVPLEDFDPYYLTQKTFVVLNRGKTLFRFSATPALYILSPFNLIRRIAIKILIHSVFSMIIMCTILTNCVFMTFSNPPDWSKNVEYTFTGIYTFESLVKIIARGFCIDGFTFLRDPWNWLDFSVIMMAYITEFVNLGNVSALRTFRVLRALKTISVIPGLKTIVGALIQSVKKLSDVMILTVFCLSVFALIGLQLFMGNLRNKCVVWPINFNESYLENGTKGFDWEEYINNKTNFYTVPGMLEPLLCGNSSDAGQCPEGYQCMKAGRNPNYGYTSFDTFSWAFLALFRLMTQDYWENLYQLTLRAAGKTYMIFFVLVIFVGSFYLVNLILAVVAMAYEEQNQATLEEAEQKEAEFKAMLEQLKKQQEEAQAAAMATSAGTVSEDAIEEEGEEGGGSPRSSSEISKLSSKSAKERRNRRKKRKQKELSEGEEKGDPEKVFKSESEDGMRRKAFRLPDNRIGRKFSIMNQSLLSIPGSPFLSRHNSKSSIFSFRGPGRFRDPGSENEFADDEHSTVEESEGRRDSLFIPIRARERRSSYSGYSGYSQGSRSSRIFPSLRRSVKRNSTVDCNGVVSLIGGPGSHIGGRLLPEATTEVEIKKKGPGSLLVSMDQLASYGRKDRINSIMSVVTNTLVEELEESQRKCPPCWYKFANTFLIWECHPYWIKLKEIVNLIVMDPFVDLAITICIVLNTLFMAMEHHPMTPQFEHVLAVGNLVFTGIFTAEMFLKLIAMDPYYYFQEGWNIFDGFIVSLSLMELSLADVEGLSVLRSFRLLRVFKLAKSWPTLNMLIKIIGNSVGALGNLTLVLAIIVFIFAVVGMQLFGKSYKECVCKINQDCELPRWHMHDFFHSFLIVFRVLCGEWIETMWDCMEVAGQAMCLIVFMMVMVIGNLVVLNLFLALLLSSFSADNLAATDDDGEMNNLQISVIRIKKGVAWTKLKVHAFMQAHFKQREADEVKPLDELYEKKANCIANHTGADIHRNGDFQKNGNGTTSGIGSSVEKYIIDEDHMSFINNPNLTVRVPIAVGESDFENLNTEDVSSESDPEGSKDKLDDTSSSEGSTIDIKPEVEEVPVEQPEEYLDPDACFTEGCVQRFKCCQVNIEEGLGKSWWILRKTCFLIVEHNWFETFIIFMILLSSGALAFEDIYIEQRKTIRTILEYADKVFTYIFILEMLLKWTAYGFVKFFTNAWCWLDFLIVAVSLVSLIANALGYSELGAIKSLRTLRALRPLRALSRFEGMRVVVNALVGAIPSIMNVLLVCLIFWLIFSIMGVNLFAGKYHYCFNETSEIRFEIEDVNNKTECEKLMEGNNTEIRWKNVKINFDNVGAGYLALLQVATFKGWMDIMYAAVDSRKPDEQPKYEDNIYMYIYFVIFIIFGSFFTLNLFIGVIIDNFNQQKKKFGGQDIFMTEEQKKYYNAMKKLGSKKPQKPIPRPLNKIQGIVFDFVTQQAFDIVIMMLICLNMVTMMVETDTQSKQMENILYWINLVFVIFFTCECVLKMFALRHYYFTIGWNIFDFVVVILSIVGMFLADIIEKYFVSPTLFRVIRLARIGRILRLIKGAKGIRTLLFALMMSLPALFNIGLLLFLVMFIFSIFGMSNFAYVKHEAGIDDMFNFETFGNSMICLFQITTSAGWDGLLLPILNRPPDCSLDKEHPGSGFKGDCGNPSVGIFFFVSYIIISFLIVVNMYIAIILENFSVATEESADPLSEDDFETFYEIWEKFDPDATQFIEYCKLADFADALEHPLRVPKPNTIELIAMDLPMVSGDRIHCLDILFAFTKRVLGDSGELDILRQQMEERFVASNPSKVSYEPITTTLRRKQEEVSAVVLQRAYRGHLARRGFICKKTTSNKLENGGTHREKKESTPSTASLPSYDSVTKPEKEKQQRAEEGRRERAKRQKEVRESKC
T2 sequence (Q9UQD0 whole entry): as above

In the case of `CCOC(F)(F)c1nnc2ccc(-c3cnc(OCC(F)(F)F)c(F)c3)cn12` [Compound 1], the “Ratio to Pers. INa (Peak INa TB)” value (human NaV1.6; peak INa TB IC50 / persistent INa IC50) is reported as 68, the “Peak INa TB Hill slope” value (human NaV1.6; tonic block) is reported as “(1.0)” and the IC50 (human NaV1.6; tonic block, Vm -120 mV, 0.2 Hz) is reported as 8.71 µM. For the same compound, the TD50 [1] was 10.3 mg/kg, the “total traveling distance in the 30-minute sLMA test” value ([2]; 10 and 20 mg/kg p.o.) was “significantly reduced total traveling distance; also recorded: significantly reduced locomotor activity” and the “sLMA TD50” value ([2]; p.o., 30 min post-dose, 30-minute test) was 10.27 mg/kg. For the same compound, the “sLMA plasma TC50” value ([2]; plasma concentration) was 1123 ng/g, the “Ratio to Pers. INa (Peak INa VDB)” value (hNaV1.6; VDB IC50 / persistent INa IC50) was 0.56 and the “Peak INa VDB Hill slope” value (hNaV1.6; voltage-dependent block) was “(1.0)”. The IC50 (hNaV1.6; voltage-dependent block, Vm inactivation V1/2) was 0.072 µM, the “neurological scores before PTZ” value [3] was “Neurological scores for all but one mouse treated with Compound 1 were normal” and the “protection from PTZ-induced generalized clonus” value ([3]; PTZ 85 mg/kg s.c.) was “mice were protected from generalized clonus”. The “inhibition of ATX-II induced persistent INa at multiple NaV isoforms and orthologs” value [4] was “inhibits ATX-II induced persistent INa expressed by multiple NaV isoforms and orthologs”.
